In US11427558B1, “Indazoles and azaindazoles as LRRK2 inhibitors” (ESCAPE Bio, Inc., priority 2019, dated 2022):

Assays:
[1] = molecular target: Recombinant wild type LRRK2 protein (Homo sapiens (Human), UniProt Q5S007); assay: LRRK2 kinase activity, LanthaScreen TR-FRET assay (wild type); assay type: biochemical; details: LRRKtide 400 nM, 25 μM ATP, 60 min; read-out: LRRK2 WT IC50
Method: (§1) LRRK2 kinase activity was measured using a LanthaScreen™ Kinase Activity Assay from ThermoFisher Scientific. Recombinant wild type or G2019S-LRRK2 protein (Life Technologies, PR8604B or PV4881, respectively), was incubated with a fluorescein-labeled peptide substrate called LRRKtide that is based upon ezrin/radixin/moesin (ERM) (Life Technologies, PV4901) in the presence of ATP and serially diluted compound. […] Compound-dependent inhibition of the TR-FRET signal was used to generate a concentration-response curve for IC50 determination.
(§2) After 60 min incubation at room temperature, the reaction was stopped by addition of 10 μL of 2× stop solution containing a final concentration of 2 nM anti-pERM antibody and 10 mM EDTA. […] The ratio of the 520 nm and 495 nm emission was used to analyze the data.

[2] = molecular target: Recombinant G2019S-LRRK2 protein (Homo sapiens (Human), UniProt Q5S007, G2019S); assay: LRRK2 kinase activity, LanthaScreen TR-FRET assay (G2019S); assay type: biochemical; details: LRRKtide 400 nM, 25 μM ATP, 60 min
Method: as §1, §2

Recombinant wild type LRRK2 protein, sequence (Q5S007 whole entry): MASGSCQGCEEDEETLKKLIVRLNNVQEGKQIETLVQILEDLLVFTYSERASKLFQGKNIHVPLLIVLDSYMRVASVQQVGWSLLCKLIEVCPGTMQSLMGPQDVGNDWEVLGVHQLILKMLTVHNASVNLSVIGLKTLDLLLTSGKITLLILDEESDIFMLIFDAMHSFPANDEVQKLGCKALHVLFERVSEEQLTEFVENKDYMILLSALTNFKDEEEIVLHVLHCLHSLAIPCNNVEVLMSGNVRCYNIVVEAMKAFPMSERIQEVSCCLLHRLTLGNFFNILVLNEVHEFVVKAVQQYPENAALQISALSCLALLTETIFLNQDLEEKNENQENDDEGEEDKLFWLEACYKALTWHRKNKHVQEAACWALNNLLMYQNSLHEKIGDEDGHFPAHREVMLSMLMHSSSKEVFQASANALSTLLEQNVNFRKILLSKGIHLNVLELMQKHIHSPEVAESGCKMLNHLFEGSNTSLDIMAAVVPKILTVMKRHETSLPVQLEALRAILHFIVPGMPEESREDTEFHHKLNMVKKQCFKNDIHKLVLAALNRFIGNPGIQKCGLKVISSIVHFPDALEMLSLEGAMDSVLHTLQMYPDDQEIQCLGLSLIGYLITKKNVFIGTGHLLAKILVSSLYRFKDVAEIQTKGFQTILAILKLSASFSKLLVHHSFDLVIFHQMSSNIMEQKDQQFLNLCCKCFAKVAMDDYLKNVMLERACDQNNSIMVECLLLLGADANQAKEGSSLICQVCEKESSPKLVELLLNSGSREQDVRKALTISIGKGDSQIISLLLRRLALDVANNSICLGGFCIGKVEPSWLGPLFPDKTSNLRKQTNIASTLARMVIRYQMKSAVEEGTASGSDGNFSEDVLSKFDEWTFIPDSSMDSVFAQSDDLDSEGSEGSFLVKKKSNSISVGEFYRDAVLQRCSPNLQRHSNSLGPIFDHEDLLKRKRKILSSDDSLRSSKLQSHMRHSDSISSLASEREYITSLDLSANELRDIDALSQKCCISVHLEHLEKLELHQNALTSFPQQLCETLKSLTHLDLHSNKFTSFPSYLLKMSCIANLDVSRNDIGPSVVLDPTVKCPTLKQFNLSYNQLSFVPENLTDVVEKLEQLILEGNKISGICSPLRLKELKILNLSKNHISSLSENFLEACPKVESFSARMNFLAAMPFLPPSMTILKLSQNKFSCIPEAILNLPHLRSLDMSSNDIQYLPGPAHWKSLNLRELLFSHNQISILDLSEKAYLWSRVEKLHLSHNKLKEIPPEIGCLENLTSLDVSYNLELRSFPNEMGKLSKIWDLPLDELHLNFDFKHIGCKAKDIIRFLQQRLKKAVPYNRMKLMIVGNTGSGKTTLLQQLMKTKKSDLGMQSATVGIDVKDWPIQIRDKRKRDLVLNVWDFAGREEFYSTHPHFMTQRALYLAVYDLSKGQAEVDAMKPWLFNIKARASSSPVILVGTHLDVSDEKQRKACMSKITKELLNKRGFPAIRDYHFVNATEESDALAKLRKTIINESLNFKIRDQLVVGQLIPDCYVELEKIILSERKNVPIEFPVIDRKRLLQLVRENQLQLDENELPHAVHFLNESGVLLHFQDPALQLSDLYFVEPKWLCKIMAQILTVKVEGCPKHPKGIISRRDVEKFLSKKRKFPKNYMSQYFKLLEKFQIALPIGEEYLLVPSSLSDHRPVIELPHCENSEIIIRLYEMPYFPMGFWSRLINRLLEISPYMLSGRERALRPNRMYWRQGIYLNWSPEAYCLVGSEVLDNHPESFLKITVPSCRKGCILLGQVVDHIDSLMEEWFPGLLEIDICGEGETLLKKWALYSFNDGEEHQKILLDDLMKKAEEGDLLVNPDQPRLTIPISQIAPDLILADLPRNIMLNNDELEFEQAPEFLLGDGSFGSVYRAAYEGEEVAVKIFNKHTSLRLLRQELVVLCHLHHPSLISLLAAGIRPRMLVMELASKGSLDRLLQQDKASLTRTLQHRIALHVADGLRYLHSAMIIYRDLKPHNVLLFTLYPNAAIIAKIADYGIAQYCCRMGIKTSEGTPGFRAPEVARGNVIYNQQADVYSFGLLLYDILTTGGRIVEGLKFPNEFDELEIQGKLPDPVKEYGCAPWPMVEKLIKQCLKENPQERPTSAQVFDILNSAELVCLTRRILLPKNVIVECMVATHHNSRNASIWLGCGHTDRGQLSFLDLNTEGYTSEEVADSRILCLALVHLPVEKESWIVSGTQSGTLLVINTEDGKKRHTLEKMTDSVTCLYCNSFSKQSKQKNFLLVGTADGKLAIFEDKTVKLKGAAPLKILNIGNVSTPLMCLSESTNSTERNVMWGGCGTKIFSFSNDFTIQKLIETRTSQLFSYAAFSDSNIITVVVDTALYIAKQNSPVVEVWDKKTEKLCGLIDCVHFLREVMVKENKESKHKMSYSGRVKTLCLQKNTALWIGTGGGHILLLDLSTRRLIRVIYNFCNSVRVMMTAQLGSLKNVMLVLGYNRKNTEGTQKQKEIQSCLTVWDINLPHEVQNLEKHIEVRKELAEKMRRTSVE
Recombinant G2019S-LRRK2 protein, sequence (Q5S007 whole entry G2019S): as the sequence (Q5S007 whole entry) above, with G2019S counted along it

| Compound | IC50 [1] | IC50 [2] |
| --- | --- | --- |
| 2-Chloro-3-cyano-N-(3-(1-(difluoromethyl)-1H-pyrazol-3-yl)-1H-indazol-5-yl)benzamide [Example 166] | < 100 nM | < 100 nM |
| 4-Cyano-N-(3-(1-(difluoromethyl)-1H-pyrazol-3-yl)-1H-indazol-5-yl)-2-fluoro-6-methylbenzamide [Example 165] | < 100 nM | < 100 nM |
| N#Cc1cnc(C(=O)Nc2ccc3[nH]nc(-c4ccoc4)c3c2)c(F)c1 [Example 1, 5-Cyano-3-fluoro-N-(3-(furan-3-yl)-1H-indazol-5-yl)picolinamide] | < 100 nM | < 100 nM |
| N#Cc1ccc(C(=O)Nc2ccc3[nH]nc(-c4ccoc4)c3c2)c(Br)c1 [Example 2, 2-Bromo-4-cyano-N-(3-(furan-3-yl)-1H-indazol-5-yl)benzamide] | < 100 nM | < 100 nM |
| N#Cc1ccc(C(=O)Nc2ccc3[nH]nc(-c4ccoc4)c3c2)c(F)c1 [Example 3, 4-Cyano-2-fluoro-N-(3-(furan-3-yl)-1H-indazol-5-yl)benzamide] | < 100 nM | < 100 nM |
| N#Cc1ccc(C(=O)Nc2ccc3[nH]nc(-c4ccoc4)c3c2)c(I)c1 [Example 4, 4-Cyano-N-(3-(furan-3-yl)-1H-indazol-5-yl)-2-iodobenzamide] | < 100 nM | < 100 nM |
| N#Cc1ccc(C(=O)Nc2ccc3[nH]nc(-c4ccoc4)c3c2)c(Cl)c1 [Example 5, 2-Chloro-4-cyano-N-(3-(furan-3-yl)-1H-indazol-5-yl)benzamide] | < 100 nM | < 100 nM |
| N#Cc1ccc(C(=O)Nc2ccc3[nH]nc(-c4ccoc4)c3c2)c(C(F)(F)F)c1 [Example 6, 4-Cyano-N-(3-(furan-3-yl)-1H-indazol-5-yl)-2-(trifluoromethyl)benzamide] | < 100 nM | < 100 nM |
| N#Cc1cc(F)c(C(=O)Nc2ccc3[nH]nc(-c4ccoc4)c3c2)c(F)c1 [Example 7, 4-Cyano-2,6-difluoro-N-(3-(furan-3-yl)-1H-indazol-5-yl)benzamide] | < 100 nM | < 100 nM |
| Cc1nc(C#N)ccc1C(=O)Nc1ccc2[nH]nc(-c3ccoc3)c2c1 [Example 8, 6-Cyano-N-(3-(furan-3-yl)-1H-indazol-5-yl)-2-methylnicotinamide] | 100 to 1000 nM | < 100 nM |
| N#Cc1ccc(C(=O)Nc2ccc3[nH]nc(-c4ccoc4)c3c2)cn1 [Example 9, 6-Cyano-N-(3-(furan-3-yl)-1H-indazol-5-yl)nicotinamide] | 100 to 1000 nM | < 100 nM |
| Cc1cc(C#N)cc(C)c1C(=O)Nc1ccc2[nH]nc(-c3ccoc3)c2c1 [Example 10, 4-Cyano-N-(3-(furan-3-yl)-1H-indazol-5-yl)-2,6-dimethylbenzamide] | < 100 nM | < 100 nM |
| N#Cc1ccc(C(=O)Nc2ccc3[nH]nc(-c4ccoc4)c3c2)cc1 [Example 11, 4-Cyano-N-(3-(furan-3-yl)-1H-indazol-5-yl)benzamide] | 100 to 1000 nM | < 100 nM |
| Cc1cc(C#N)ccc1C(=O)Nc1ccc2[nH]nc(C)c2c1 [Example 12, 4-Cyano-2-methyl-N-(3-methyl-1H-indazol-5-yl)benzamide] | 100 to 1000 nM | < 100 nM |
| Cc1nc(C(=O)Nc2ccc3[nH]nc(-c4ccoc4)c3c2)ccc1C#N [Example 13, 5-Cyano-N-(3-(furan-3-yl)-1H-indazol-5-yl)-6-methylpicolinamide] | 100 to 1000 nM | < 100 nM |
| COc1cc(C#N)ccc1C(=O)Nc1ccc2[nH]nc(-c3ccoc3)c2c1 [Example 15, 4-Cyano-N-(3-(furan-3-yl)-1H-indazol-5-yl)-2-methoxybenzamide] | 100 to 1000 nM | < 100 nM |
| N#Cc1ccc(C(=O)Nc2ccc3[nH]nc(-c4ccoc4)c3c2)nc1 [Example 16, 5-Cyano-N-(3-(furan-3-yl)-1H-indazol-5-yl)picolinamide] | 100 to 1000 nM | < 100 nM |
| Cc1ccc(C#N)cc1C(=O)Nc1ccc2[nH]nc(-c3ccoc3)c2c1 [Example 17, 5-Cyano-N-(3-(furan-3-yl)-1H-indazol-5-yl)-2-methylbenzamide] | < 100 nM | < 100 nM |
| Cc1cc(C#N)ccc1C(=O)Nc1ccc2[nH]nc(-c3ccoc3)c2c1 [Example 18, 4-Cyano-N-(3-(furan-3-yl)-1H-indazol-5-yl)-2-methylbenzamide] | < 100 nM | < 100 nM |

| Compound | IC50 [1] | IC50 [2] |
| --- | --- | --- |
| Cc1c(C#N)cccc1C(=O)Nc1ccc2[nH]nc(-c3ccoc3)c2c1 [Example 19, 3-Cyano-N-(3-(furan-3-yl)-1H-indazol-5-yl)-2-methylbenzamide] | < 100 nM | < 100 nM |
| N#Cc1ncc(C(=O)Nc2ccc3[nH]nc(-c4ccoc4)c3c2)s1 [Example 20, 2-Cyano-N-(3-(furan-3-yl)-1H-indazol-5-yl)thiazole-5-carboxamide] | 100 to 1000 nM | < 100 nM |
| N#Cc1cccc(C(=O)Nc2ccc3[nH]nc(-c4ccncc4)c3c2)c1 [Example 21, 3-Cyano-N-(3-(pyridin-4-yl)-1H-indazol-5-yl)benzamide] | < 100 nM | < 100 nM |
| N#Cc1cc(C(=O)Nc2ccc3[nH]nc(-c4ccncc4)c3c2)ccn1 [Example 22, 2-Cyano-N-(3-(pyridin-4-yl)-1H-indazol-5-yl)isonicotinamide] | < 100 nM | < 100 nM |
| N#Cc1ccnc(C(=O)Nc2ccc3[nH]nc(-c4ccncc4)c3c2)c1 [Example 23, 4-Cyano-N-(3-(pyridin-4-yl)-1H-indazol-5-yl)picolinamide] | 100 to 1000 nM | < 100 nM |
| N#Cc1cncc(C(=O)Nc2ccc3[nH]nc(-c4ccncc4)c3c2)c1 [Example 24, 5-Cyano-N-(3-(pyridin-4-yl)-1H-indazol-5-yl)nicotinamide] | 100 to 1000 nM | 100 to 1000 nM |
| N#Cc1ncc(C(=O)Nc2ccc3[nH]nc(-c4ccncc4)c3c2)cn1 [Example 25, 2-Cyano-N-(3-(pyridin-4-yl)-1H-indazol-5-yl)pyrimidine-5-carboxamide] | 100 to 1000 nM | 100 to 1000 nM |
| Cc1c(C(=O)Nc2ccc3[nH]nc(-c4ccccc4)c3c2)cc(C#N)n1C [Example 26, 5-Cyano-1,2-dimethyl-N-(3-phenyl-1H-indazol-5-yl)-1H-pyrrole-3-carboxamide] | 100 to 1000 nM | < 100 nM |
| Cc1oc(C#N)cc1C(=O)Nc1ccc2[nH]nc(-c3ccccc3)c2c1 [Example 27, 5-Cyano-2-methyl-N-(3-phenyl-1H-indazol-5-yl)furan-3-carboxamide] | 100 to 1000 nM | < 100 nM |
| Cc1ccc(-c2n[nH]c3ccc(NC(=O)c4ncc(C#N)cc4C)cc23)cc1C [Example 28, 5-Cyano-N-(3-(3,4-dimethylphenyl)-1H-indazol-5-yl)-3-methylpicolinamide] | 100 to 1000 nM | < 100 nM |
| Cc1cc(C#N)cnc1C(=O)Nc1ccc2[nH]nc(-c3ccco3)c2c1 [Example 29, 5-Cyano-N-(3-(furan-2-yl)-1H-indazol-5-yl)-3-methylpicolinamide] | 100 to 1000 nM | < 100 nM |
| Cc1cc(C#N)cnc1C(=O)Nc1ccc2[nH]nc(-c3cccc(N(C)C)c3)c2c1 [Example 30, 5-Cyano-N-(3-(3-(dimethylamino)phenyl)-1H-indazol-5-yl)-3-methylpicolinamide] | 100 to 1000 nM | < 100 nM |
| Cc1cc(C#N)cnc1C(=O)Nc1ccc2[nH]nc(-c3ccncc3)c2c1 [Example 31, 5-Cyano-3-methyl-N-(3-(pyridin-4-yl)-1H-indazol-5-yl)picolinamide] | 100 to 1000 nM | < 100 nM |
| Cc1cc(C#N)cnc1C(=O)Nc1ccc2[nH]nc(-c3cnn(C(F)F)c3)c2c1 [Example 32, 5-Cyano-N-(3-(1-(difluoromethyl)-1H-pyrazol-4-yl)-1H-indazol-5-yl)-3-methylpicolinamide] | 100 to 1000 nM | < 100 nM |
| Cc1cc(C#N)cnc1C(=O)Nc1ccc2[nH]nc(-c3cnn(C4CCOCC4)c3)c2c1 [Example 33, 5-cyano-3-methyl-N-(3-(1-(tetrahydro-2H-pyran-4-yl)-1H-pyrazol-4-yl)-1H-indazol-5-yl)picolinamide] | < 100 nM | < 100 nM |
| Cc1cc(C#N)cnc1C(=O)Nc1ccc2[nH]nc(-c3cccc(S(C)(=O)=O)c3)c2c1 [Example 34, 5-Cyano-3-methyl-N-(3-(3-(methylsulfonyl)phenyl)-1H-indazol-5-yl)picolinamide] | < 100 nM | < 100 nM |
| Cc1cc(C#N)cnc1C(=O)Nc1ccc2[nH]nc(-c3ccc(C(F)(F)F)cc3)c2c1 [Example 35, 5-Cyano-3-methyl-N-(3-(4-(trifluoromethyl)phenyl)-1H-indazol-5-yl)picolinamide] | > 10000 nM | 100 to 1000 nM |
| Cc1cc(C#N)cnc1C(=O)Nc1ccc2[nH]nc(-c3cnoc3C)c2c1 [Example 36, 5-Cyano-3-methyl-N-(3-(5-methylisoxazol-4-yl)-1H-indazol-5-yl)picolinamide] | > 10000 nM | < 100 nM |
| Cc1cc(C#N)cnc1C(=O)Nc1ccc2[nH]nc(-c3ccoc3)c2n1 [Example 105, 5-Cyano-N-(3-(furan-3-yl)-1H-pyrazolo[4,3-b]pyridin-5-yl)-3-methylpicolinamide] | 100 to 1000 nM |  |
